Assay results taken from ChEMBL document CHEMBL1201862, “PubChem BioAssay data set” (2004).
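96-well plates; 48 h exposure; 5 concentrations. Endpoints by linear interpolation between flanking doses. Not reached: highest tested concentration assigned. GI50 marks 50% less growth.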 Calls of active or inactive are those of the source. Rule as the data show it: active = GI50 up to about 1.1 µM and inactive = higher.

Legend:
Test in all cases: NCI tumour cell line growth inhibition, 48 h
SK-MEL-2 = system: SK-MEL-2
OVCAR-8 = system: OVCAR-8
DU-145 = system: DU-145
HCT-116 = system: HCT-116
UO-31 = system: UO-31
Hs-578T = system: Hs-578T
HOP-62 = system: HOP-62
SNB-75 = system: SNB-75
UACC-62 = system: UACC-62
MOLT-4 = system: MOLT-4
SK-MEL-28 = system: SK-MEL-28
K562 = system: K562
BT-549 = system: BT-549
SN12C = system: SN12C
MDA-N = system: MDA-N
MCF7 = system: MCF7
MDA-MB-435 = system: MDA-MB-435
SF-539 = system: SF-539
OVCAR-3 = system: OVCAR-3
DLD-1 = system: DLD-1

Measured: GI50

COC(=O)/C=C(/C=C1/C(C#N)=C(N)N(c2ccc(Cl)cc2)C1(C)/C(=C\C(=O)OC)C(=O)OC)C(=O)OC (configuration not stated)
inactive: SK-MEL-2 32.1 µM | OVCAR-8 17.3 µM | DU-145 35.5 µM | HCT-116 15.8 µM | UO-31 17.9 µM | Hs-578T 42.8 µM | HOP-62 35.9 µM | SNB-75 25.6 µM | UACC-62 12.9 µM | MOLT-4 23.3 µM | SK-MEL-28 18.9 µM | K562 23.1 µM | BT-549 15.7 µM | SN12C 21.6 µM | MDA-N 16.2 µM | MCF7 20.7 µM | MDA-MB-435 18.5 µM | SF-539 15.4 µM | OVCAR-3 18.4 µM

O=C(/C=C/c1ccccc1)CCN1CCCCC1
inactive: SK-MEL-2 > 100 µM | OVCAR-8 18.5 µM | DU-145 > 100 µM | HCT-116 17.4 µM | UO-31 34.9 µM | Hs-578T 30.9 µM | HOP-62 > 100 µM | SNB-75 36.8 µM | UACC-62 55.2 µM | MOLT-4 24.1 µM | SK-MEL-28 24.2 µM | K562 40.1 µM | BT-549 47.1 µM | SN12C 20.3 µM | MDA-N 24.9 µM | MCF7 27.4 µM | MDA-MB-435 28.2 µM | SF-539 17.8 µM | OVCAR-3 31.2 µM

CC(C)(C)CC(C)(C)c1ccc(OCCOCC[N+](C)(C)Cc2ccccc2)cc1 [BENZETHONIUM CHLORIDE]
inactive: SK-MEL-2 2.06 µM | OVCAR-8 3.19 µM | HCT-116 1.71 µM | UO-31 21.6 µM | HOP-62 8.93 µM | SNB-75 2.43 µM | UACC-62 1.36 µM | MOLT-4 2.22 µM | DLD-1 4.21 µM | SK-MEL-28 1.86 µM | K562 2.19 µM | SN12C 3.52 µM | OVCAR-3 1.52 µM

C/C(=N\Nc1cc(CN2CCCC2)c(-c2ccc(Cl)cc2)nn1)C(=O)O
inactive: SK-MEL-2 > 100 µM | OVCAR-8 > 100 µM | DU-145 > 100 µM | HCT-116 > 100 µM | UO-31 > 100 µM | Hs-578T > 100 µM | HOP-62 > 100 µM | SNB-75 > 100 µM | UACC-62 > 100 µM | MOLT-4 > 100 µM | SK-MEL-28 > 100 µM | K562 > 100 µM | BT-549 > 100 µM | SN12C > 100 µM | MDA-N > 100 µM | MCF7 > 100 µM | MDA-MB-435 > 100 µM | SF-539 > 100 µM | OVCAR-3 90.2 µM

Cc1ccccc1C(O)(c1nccn1C)c1nccn1C
inactive: SK-MEL-2 > 100 µM | OVCAR-8 > 100 µM | DU-145 > 100 µM | HCT-116 > 100 µM | UO-31 > 100 µM | Hs-578T > 100 µM | HOP-62 > 100 µM | SNB-75 > 100 µM | UACC-62 > 100 µM | MOLT-4 > 100 µM | SK-MEL-28 > 100 µM | K562 > 100 µM | BT-549 > 100 µM | SN12C > 100 µM | MDA-N > 100 µM | MCF7 > 100 µM | MDA-MB-435 > 100 µM | SF-539 > 100 µM | OVCAR-3 > 100 µM

N#CC(CCN1CCC(Nc2ccccc2)(c2nnnn2C2CCCCC2)CC1)(c1ccccc1)c1ccccc1
inactive: SK-MEL-2 > 100 µM | OVCAR-8 > 100 µM | DU-145 81.3 µM | HCT-116 > 100 µM | UO-31 > 100 µM | Hs-578T > 100 µM | HOP-62 > 100 µM | SNB-75 > 100 µM | UACC-62 > 100 µM | MOLT-4 > 100 µM | SK-MEL-28 > 100 µM | K562 > 100 µM | BT-549 > 100 µM | SN12C > 100 µM | MDA-N > 100 µM | MCF7 58.2 µM | MDA-MB-435 > 100 µM | SF-539 > 100 µM | OVCAR-3 > 100 µM

CCCC(=O)OCC(COC(=O)CCC)OC(=O)CCC [TRIBUTYRIN]
inactive: SK-MEL-2 24.2 µM | OVCAR-8 62.4 µM | DU-145 29.9 µM | HCT-116 48.8 µM | UO-31 34.4 µM | Hs-578T 57.9 µM | HOP-62 > 100 µM | SNB-75 36.7 µM | UACC-62 58.3 µM | MOLT-4 73.5 µM | SK-MEL-28 66.1 µM | K562 64.7 µM | BT-549 97.3 µM | SN12C > 100 µM | MDA-N 65.2 µM | MCF7 > 100 µM | MDA-MB-435 85.7 µM | SF-539 62.8 µM | OVCAR-3 > 100 µM
